According to US20250338846A1, “COMPOSITIONS HAVING PESTICIDAL UTILITY AND PROCESSES RELATED THERETO” (CORTEVA AGRISCIENCE, LLC, priority 2022, published 2025):

Test system: Sweet Potato Whitefly (Bemisia tabaci, BEMITA)
Assay: Bioassay 8: Sweet Potato Whitefly, spray on cotton seedlings at crawler emergence, nymphs counted 7-9 days after treatment
Type: in vivo
Conditions: F1 alone 0.8 (10^-5) Wt %

CCN(C(=O)CCS(C)(=O)=O)c1sc(-c2cccnc2)nc1Cl [Formula F1, N-(4-chloro-2-(pyridin-3-yl)thiazol-5-yl)-N-ethyl-3-(methylsulfonyl)propanamide]
Average % Control F1: 74.86%
